According to patent US20250034135A1, “ANTI-APOPTOTIC PROTEIN BCL-2 INHIBITOR, PHARMACEUTICAL COMPOSITION AND USES THEREOF” (HANGZHOU HEALZEN THERAPEUTICS CO., LTD., priority 2021, published 2025):

Molecular target: BCL2 (Homo sapiens (Human), UniProt P10415)
Test: Molecular level activity test of anti-apoptotic protein BCL2 (HTRF, binding to Bim peptide)
Conditions: HTRF, binding of BCL2 to Bim peptide; read-out: BCL2 nM (inhibitory activity, IC50)
Method: The detection of the binding ability between anti-apoptotic protein BCL2 and pro-apoptotic protein Bim was performed using Homogeneous Time-Resolved Fluorescence technology. The reaction of this method occurred in a white shallow 384-well plate, with a total reaction volume of 10 μL. Specifically, it included 2 μL of the compound to be tested (2% DMSO), 4 μL His-tagged recombinant protein, and 4 μL Biotin-tagged BIM protein peptide. After 1 hour of reaction, 5 μL of each Anti-His and streptavidin-tagged XL665 antibody diluents diluted with a detection buffer were added. After incubating at room temperature for 4 hours, the values were read using the Envision multifunctional microplate reader to detect the effect of the compound to be tested on the binding ability of BCL2 to Bim protein peptides.

BCL2, sequence (P10415 whole entry): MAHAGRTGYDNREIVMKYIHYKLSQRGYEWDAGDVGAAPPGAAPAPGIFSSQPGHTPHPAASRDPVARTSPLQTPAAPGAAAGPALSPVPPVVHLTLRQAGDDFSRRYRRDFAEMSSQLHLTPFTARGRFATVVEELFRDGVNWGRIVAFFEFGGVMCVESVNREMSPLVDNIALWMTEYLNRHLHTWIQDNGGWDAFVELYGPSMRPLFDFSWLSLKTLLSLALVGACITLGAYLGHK

IC50 | Structure (SMILES)
< 10 nM | COc1ccc(CN2CCN(C3CC4(CCN(c5ccc(C(=O)NS(=O)(=O)c6cc([N+](=O)[O-])c(NCC7(F)CCOCC7)c7[nH]cnc67)c(N6CCOc7nc8[nH]ccc8cc76)c5)CC4)C3)C(c3ccccc3C(C)C)C2)cc1 (stereo not drawn) [compound 093, 2-(2,3-dihydropyrrolo[3′,2′:5,6]pyridino[2,3-b][1,4]oxazin-1 (6H)-yl)-N-((7-(((4-fluorotetrahydro-2H-pyran-4-yl)methyl)amino)-6-nitro-1H-benzo[d]imidazol-4-yl)sulfonyl)-4-(2-(2-(2-isopropylphenyl)-4-(4-methoxybenzyl)piperazin-1-yl)-7-azaspiro[3.5]non-7-yl)benzamide]
< 10 nM | CC(C)c1ccccc1[C@@H]1CN(Cc2ccc(F)c(F)c2)CCN1C1CC2(CCN(c3ccc(C(=O)NS(=O)(=O)c4cc([N+](=O)[O-])c(NCC5(F)CCOCC5)c5c4OCO5)c(Oc4cnc5[nH]ccc5c4)c3)CC2)C1 [compound 168, (R)-2-((1H-pyrrolo[2,3-b]pyrid-5-yl)oxy)-4-(2-(4-(3,4-difluorobenzyl)-2-(2-isopropylphenyl)piperazin-1-yl)-7-azaspiro[3.5]non-7-yl)-N-((7-(((4-fluorotetrahydro-2H-pyran-4-yl)methyl)amino)-6-nitrobenzo[d][1,3]dioxocyclopent-4-yl)sulfonyl)benzamide]
< 10 nM | CC(C)c1ccccc1[C@@H]1CCCN1C1CC2(CCN(c3cc(N4CCOc5nc6[nH]ccc6cc54)c(C(=O)NS(=O)(=O)c4cc([N+](=O)[O-])c(NC[C@H]5CC[C@](C)(O)CC5)c5[nH]cnc45)cc3F)CC2)C1 [compound 082, 2-(2,3-dihydropyrrolo[3′,2′:5,6]pyridino[2,3-b][1,4]oxazin-1 (6H)-yl)-5-fluoro-N-((7-((((1r,4r)-4-hydroxy-4-methylcyclohexyl)methyl)amino)-6-nitro-1H-benzo[d]imidazol-4-yl)sulfonyl)-4-(2-((S)-2-(2-isopropylphenyl)pyrrolidin-1-yl)-7-azaspiro[3.5]non-7-yl)benzamide]
< 10 nM | COc1cc(CN2CCN(C3CC4(CCN(c5ccc(C(=O)NS(=O)(=O)c6cc([N+](=O)[O-])c(NC[C@H]7CC[C@](C)(O)CC7)c7c6OCO7)c(Oc6cnc7[nH]ccc7c6)c5)CC4)C3)[C@H](c3ccccc3C(C)C)C2)ccc1C1CC1 [compound 179, 2-((1H-pyrrolo[2,3-b]pyrid-5-yl)oxy)-4-(2-((R)-4-(4-cyclopropyl-3-methoxybenzyl)-2-(2-isopropylphenyl)piperazin-1-yl)-7-azaspiro[3.5]non-7-yl)-N-((7-((((1r, 4r)-4-hydroxy-4-methylcyclohexyl)methyl)amino)-6-nitrobenzo[d][1,3]dioxocyclopent-4-yl)sulfonyl)benzamide]
< 10 nM | CC(C)c1ccccc1[C@@H]1CN(Cc2ccc(C#N)cc2)CCN1C1CC2(CCN(c3cc(Oc4cnc5[nH]ccc5c4)c(C(=O)NS(=O)(=O)c4ccc(NC[C@H]5CC[C@](C)(O)CC5)c([N+](=O)[O-])c4)cc3F)CC2)C1 [compound 214, 2-((1H-pyrrolo[2,3-b]pyrid-5-yl)oxy)-4-(2-((R)-4-(4-cyanobenzyl)-2-(2-isopropylphenyl)piperazin-1-yl)-7-azaspiro[3.5]non-7-yl)-5-fluoro-N-((4-((((1r, 4r)-4-hydroxy-4-methylcyclohexyl)methyl)amino)-3-nitrophenyl)sulfonyl)benzamide]
< 10 nM | COc1ccc(CN2CCN(C3CC4(CCN(c5cc(Oc6cnc7[nH]ccc7c6)c(C(=O)NS(=O)(=O)c6cc([N+](=O)[O-])c(NC[C@H]7CC[C@](C)(O)CC7)c7c6CCO7)cc5F)CC4)C3)[C@H](c3ccccc3C(C)C)C2)cc1 [compound 119, 2-((1H-pyrrolo[2,3-b]pyrid-5-yl)oxy)-5-fluoro-N-((7-((((1r, 4r)-4-hydroxy-4-methylcyclohexyl)methyl)amino)-6-nitro-2,3-dihydrobenzofuran-4-yl)sulfonyl)-4-(2-((R)-2-(2-isopropylphenyl)-4-(4-methoxybenzyl)piperazin-1-yl)-7-azaspiro[3.5]non-7-yl)benzamide]
< 10 nM | CC(C)c1ccccc1[C@@H]1CCCN1C1CC2(CCN(c3ccc(C(=O)NS(=O)(=O)c4cc([N+](=O)[O-])c(NC[C@H]5CC[C@](C)(O)CC5)c5c4OCO5)c(Oc4cnc5[nH]ccc5c4)c3)CC2)C1 [compound 158, 2-((1H-pyrrolo[2,3-b]pyrid-5-yl)oxy)-N-((7-((((1r, 4r)-4-hydroxy-4-methylcyclohexyl)methyl)amino)-6-nitrobenzo[d][1,3]dioxocyclopent-4-yl)sulfonyl)-4-(2-((S)-2-(2-isopropylphenyl)pyrrolidin-1-yl)-7-azaspiro[3.5]non-7-yl)benzamide]
< 10 nM | CC(C)c1ccccc1[C@@H]1CCCN1C1CC2(CCN(c3ccc(C(=O)NS(=O)(=O)c4cc([N+](=O)[O-])c(NCC5(F)CCOCC5)c5[nH]cnc45)c(N4CCCOc5nc6[nH]ccc6cc54)c3)CC2)C1 [compound 088, (S)-2-(3,4-dihydro-2H-pyrrolo[3′,2′:5,6]pyridino[2,3-b][1,4]oxazacyclohept-1 (7H)-yl)-N-((7-(((4-fluorotetrahydro-2H-pyran-4-yl)methyl)amino)-6-nitro-1H-benzo[d]imidazol-4-yl)sulfonyl)-4-(2-(2-(2-isopropylphenyl)pyrrolidin-1-yl)-7-azaspiro[3.5]non-7-yl)benzamide]
< 10 nM | CC(C)c1ccccc1[C@@H]1CCCN1C1CC2(CCN(c3cc(Oc4cnc5[nH]ccc5c4)c(C(=O)NS(=O)(=O)c4cc([N+](=O)[O-])c(NCC5CCC(N(C)C)CC5)c5[nH]cnc45)cc3F)CC2)C1 (stereo partly drawn) [compound 034, 2-((1H-pyrrolo[2,3-b]pyrid-5-yl)oxy)-N-((7-((((1S,4S)-4-(dimethylamino)cyclohexyl)methyl)amino)-6-nitro-1H-benzo[d]imidazol-4-yl)sulfonyl)-5-fluoro-4-(2-((S)-2-(2-isopropylphenyl)pyrrolidin-1-yl)-7-azaspiro[3.5]non-7-yl)benzamide]
< 10 nM | CC(C)c1ccccc1[C@@H]1CCCN1C1CC2(CCN(c3cc(Oc4cnc5[nH]ccc5c4)c(C(=O)NS(=O)(=O)c4cc([N+](=O)[O-])c(NCC5(F)CCN(C(=O)CN(C)C)CC5)c5[nH]cnc45)cn3)CC2)C1 [compound 029, (S)-4-((1H-pyrrolo[2,3-b]pyrid-5-yl)oxy)-N-((7-(((1-(dimethylglycyl)-4-fluoropiperid-4-yl)methyl)amino)-6-nitro-1H-benzo[d]imidazol-4-yl)sulfonyl)-6-(2-(2-(2-isopropylphenyl)pyrrolidin-1-yl)-7-azaspiro[3.5]non-7-yl) nicotinamide]
< 10 nM | CC(C)c1ccccc1[C@@H]1CN(Cc2ccc(F)cc2)CCN1C1CC2(CCN(c3ccc(C(=O)NS(=O)(=O)c4cc([N+](=O)[O-])c(NCC5(F)CCOCC5)c5c4OCO5)c(Oc4cnc5[nH]ccc5c4)c3)CC2)C1 [compound 167, (R)-2-((1H-pyrrolo[2,3-b]pyrid-5-yl)oxy)-4-(2-(4-(4-fluorobenzyl)-2-(2-isopropylphenyl)piperazin-1-yl)-7-azaspiro[3.5]non-7-yl)-N-((7-(((4-fluorotetrahydro-2H-pyran-4-yl)methyl)amino)-6-nitrobenzo[d][1,3]dioxocyclopent-4-yl)sulfonyl)benzamide]
< 10 nM | COc1ccc(CN2CCN(C3CC4(CCN(c5ccc(C(=O)NS(=O)(=O)c6cc([N+](=O)[O-])c(NC[C@H]7CC[C@](C)(O)CC7)c7[nH]cnc67)c(N6CCCOc7nc8[nH]ccc8cc76)c5)CC4)C3)C(c3ccccc3C(C)C)C2)cc1 (stereo partly drawn) [compound 090, 2-(3,4-dihydro-2H-pyrrolo[3′,2′:5,6]pyridino[2,3-b][1,4]oxazacyclohept-1 (7H)-yl)-N-((7-((((1r,4r)-4-hydroxy-4-methylcyclohexyl)methyl)amino)-6-nitro-1H-benzo[d]imidazol-4-yl)sulfonyl)-4-(2-(2-(2-isopropylphenyl)-4-(4-methoxybenzyl)piperazin-1-yl)-7-azaspiro[3.5]non-7-yl)benzamide]
< 10 nM | CC(C)c1ccccc1[C@@H]1CN(Cc2ccc(C3CC3)cc2)CCN1C1CC2(CCN(c3cc(Oc4cnc5[nH]ccc5c4)c(C(=O)NS(=O)(=O)c4ccc(NC[C@H]5CC[C@](C)(O)CC5)c([N+](=O)[O-])c4)cc3F)CC2)C1 [compound 219, 2-((1H-pyrrolo[2,3-b]pyrid-5-yl)oxy)-4-(2-((R)-4-(4-cyclopropylbenzyl)-2-(2-isopropylphenyl)piperazin-1-yl)-7-azaspiro[3.5]non-7-yl)-5-fluoro-N-((4-((((1r, 4r)-4-hydroxy-4-methylcyclohexyl)methyl)amino)-3-nitrophenyl)sulfonyl)benzamide]
< 10 nM | CC(C)c1ccccc1[C@@H]1CCCN1C1CC2(CCN(c3cc(Oc4cnc5[nH]ccc5c4)c(C(=O)NS(=O)(=O)c4cc([N+](=O)[O-])c(NC[C@H]5CC[C@](C)(O)CC5)c5ocnc45)cc3F)CC2)C1 [compound 097, 2-((1H-pyrrolo[2,3-b]pyrid-5-yl)oxy)-5-fluoro-N-((7-((((1r, 4r)-4-hydroxy-4-methylcyclohexyl)methyl)amino)-6-nitrobenzo[d]oxazol-4-yl)sulfonyl)-4-(2-((S)-2-(2-isopropylphenyl)pyrrolidin-1-yl)-7-azaspiro[3.5]non-7-yl)benzamide]
< 10 nM | COc1ccc(CN2CCN(C3CC4(CCN(c5cc(Oc6cnc7[nH]ccc7c6)c(C(=O)NS(=O)(=O)c6cc([N+](=O)[O-])c(NCC7(F)CCOCC7)c7ocnc67)cc5F)CC4)C3)[C@H](c3ccccc3C(C)C)C2)c(F)n1 [compound 131, (R)-2-((1H-pyrrolo[2,3-b]pyrid-5-yl)oxy)-5-fluoro-4-(2-(4-((2-fluoro-6-methoxypyrid-3-yl)methyl)-2-(2-isopropylphenyl)piperazin-1-yl)-7-azaspiro[3.5]non-7-yl)-N-((7-(((4-fluorotetrahydro-2H-pyran-4-yl)methyl)amino)-6-nitrobenzo[d]yl)sulfonyl)benzamide]
